For one assay, the target named is GSK3α (Homo sapiens, UniProt P49840). Description: biochemical. The method, then: (§1) The kinase assay was performed in V-bottom 384-well plates. […] The reaction was incubated at room temperature for 20 hours and terminated by adding 45 μl of 35 mM EDTA to each sample. The reaction mixture was analyzed on the Caliper LabChip3000 (Caliper, Hopkinton, Mass.) by electrophoretic separation of the unphosphorylated substrate and phosphorylated product. […] Compounds were dissolved at 10 mM in dimethylsulfoxide (DMSO) and evaluated at eleven concentrations. IC50 values were derived by non-linear regression analysis.

Another assay has as its target GSK3β (Homo sapiens, UniProt P49841). In words: GSK3β kinase assay (Caliper LabChip3000, fluoresceinated peptide substrate). The assay is classed as biochemical. On the procedure:
as §1

The test system of a further assay is pTau. Description: pTau assay (method not described). The assay is classed as cell-based.
[1] abbreviates: second value of the cell; 250 pM enzyme, 20 uM ATP, 20 hours at room temperature; read-out: GSK3β/α (nM): GSK3α IC50.
The mark [2] stands for this setting: first value of the cell, 250 pM enzyme, 20 uM ATP, 20 hours at room temperature, read-out: GSK3β/α (nM): GSK3β IC50.

Read-outs that look alike come from different tables or passages of the source. Bounds are passed on as bounds.

Chain of GSK3β (P49841 whole entry, species assumed): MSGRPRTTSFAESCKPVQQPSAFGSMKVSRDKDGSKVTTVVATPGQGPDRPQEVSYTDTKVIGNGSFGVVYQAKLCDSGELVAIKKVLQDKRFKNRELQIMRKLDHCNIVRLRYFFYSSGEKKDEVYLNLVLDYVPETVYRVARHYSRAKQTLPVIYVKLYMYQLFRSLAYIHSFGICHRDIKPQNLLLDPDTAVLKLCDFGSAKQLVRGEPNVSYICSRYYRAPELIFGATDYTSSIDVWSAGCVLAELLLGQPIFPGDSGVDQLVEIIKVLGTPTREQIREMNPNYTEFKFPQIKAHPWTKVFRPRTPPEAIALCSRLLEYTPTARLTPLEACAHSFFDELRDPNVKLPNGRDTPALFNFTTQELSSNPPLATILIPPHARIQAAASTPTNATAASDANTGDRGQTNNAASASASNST
Chain of GSK3α (P49840 whole entry, species assumed): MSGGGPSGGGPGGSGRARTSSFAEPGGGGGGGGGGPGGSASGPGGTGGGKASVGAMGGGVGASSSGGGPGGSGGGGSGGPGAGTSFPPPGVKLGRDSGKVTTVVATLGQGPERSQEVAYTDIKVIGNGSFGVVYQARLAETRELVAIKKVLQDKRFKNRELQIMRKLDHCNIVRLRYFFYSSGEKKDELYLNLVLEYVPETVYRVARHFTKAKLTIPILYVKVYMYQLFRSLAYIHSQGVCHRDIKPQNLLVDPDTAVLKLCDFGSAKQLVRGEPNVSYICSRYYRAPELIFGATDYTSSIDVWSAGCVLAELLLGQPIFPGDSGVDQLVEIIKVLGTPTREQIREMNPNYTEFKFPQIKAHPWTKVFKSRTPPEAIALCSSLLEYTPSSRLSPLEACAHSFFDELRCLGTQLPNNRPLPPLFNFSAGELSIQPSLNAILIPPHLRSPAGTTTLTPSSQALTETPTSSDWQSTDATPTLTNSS

As to `COc1ccccc1-c1cncc(NC(=O)c2ccnc(NC(=O)C3CC3)c2)c1` [Example 123, 2-(cyclopropanecarboxamido)-N-(5-(2-methoxyphenyl)pyridin-3-yl)isonicotinamide], the values for the IC50 at GSK3α (setting [1]), on GSK3β and with pTau (read-out: pTau (nM)) were 1.4 nM, 3.7 nM and 200 nM, respectively.
`Cc1cccc2sc(NC(=O)c3ccnc(NC(=O)C4CC4)c3)nc12` [Example 184, 2-(cyclopropanecarboxamido)-N-(4-methylbenzo[d]thiazol-2-yl)isonicotinamide]: the IC50 at GSK3α (setting [1]) is 170 nM; on GSK3β (setting [2]), 800 nM; with pTau (read-out: pTau), at least 10000 nM.
Regarding `Cc1ccncc1NC(=O)c1ccnc(NC(=O)C2CC2)c1` [Example 9, 2-(Cyclopropanecarboxamido)-N-(4-methylpyridin-3-yl)isonicotinamide], the IC50 on GSK3α (setting [1]) is 22 nM; against GSK3β it was 30 nM; with pTau (read-out: pTau) it was 1200 nM.
For `CC1(C)CN(c2ccncc2NC(=O)c2ccnc(NC(=O)C3CC3)c2)CCO1` [Example 87, 2-(Cyclopropanecarboxamido)-N-(4-(2,2-dimethylmorpholino)pyridin-3-yl)isonicotinamide], the IC50 at GSK3α (setting [1]) stood at 0.39 nM; against GSK3β it was 0.79 nM; with pTau (read-out: pTau) it was 25 nM.
On to `O=C(Nc1cnccc1-c1cc2ccccc2o1)c1ccnc(NC(=O)C2CC2)c1` [Example 95, N-(4-(benzofuran-2-yl)pyridin-3-yl)-2-(cyclopropanecarboxamido)isonicotinamide], for which the results for the IC50 at GSK3α (setting [1]), on GSK3β (setting [2]) and in the assay on pTau (read-out: pTau) were 1.4 nM, 1.9 nM and 100 nM, respectively.
`CCC1(c2cc(Cl)ncc2NC(=O)c2ccnc(NC(=O)C(C)(C)C)c2)OCCO1` [Example 210, N-(6-chloro-4-(2-ethyl-1,3-dioxolan-2-yl)pyridin-3-yl)-2-pivalamidoisonicotinamide]: the values for the IC50 on GSK3α (setting [1]), at GSK3β (setting [2]) and in the assay with pTau (read-out: pTau) were 1.3 nM, 3.6 nM and 250 nM, respectively.
For `O=C(Nc1cnccc1-c1ccc(Cl)cc1)c1ccnc(NC(=O)C2CC(F)C2)c1` (single isomer, unassigned) [Example 222, N-(4-(4-chlorophenyl)pyridin-3-yl)-2-((1,3-trans)-3-fluorocyclobutanecarboxamido)isonicotinamide], the IC50 came out at 1.3 nM at GSK3α (read-out: GSK3β/α (nM): GSK3α IC50; second value of the cell; 250 pM enzyme, 20 uM ATP, 20 hours at room temperature); 1.7 nM at GSK3β (read-out: GSK3β/α (nM): GSK3β IC50, first value of the cell, 250 pM enzyme, 20 uM ATP, 20 hours at room temperature); 37 nM in the assay on pTau (read-out: pTau).
With `O=C(Nc1cnccc1-c1ccc(OC(F)(F)F)cc1F)c1ccnc(NC(=O)C2CC2)c1` [Example 94, 2-(Cyclopropanecarboxamido)-N-(4-(2-fluoro-4-(trifluoromethoxy)phenyl)pyridin-3-yl)isonicotinamide], the IC50 at GSK3α (setting [1]) amounted to 5 nM; at GSK3β (setting [2]), 13 nM; in the assay on pTau (read-out: pTau), 120 nM.
Regarding `Cc1ccc(-c2cncc(NC(=O)c3ccnc(NC(=O)C4CC4)c3)c2)cn1` [Example 162, 2-(cyclopropanecarboxamido)-N-(6′-methyl-[3,3′-bipyridin]-5-yl)isonicotinamide], the figures for the IC50 at GSK3α (setting [1]), on GSK3β and in the assay with pTau (read-out: pTau) were 1.1 nM, 2.5 nM and 115 nM, respectively.
In the case of `O=C(Nc1cncc(N2CCCCC2)c1)c1ccnc(NC(=O)C2CC2)c1` [Example 108, 2-(cyclopropanecarboxamido)-N-(5-(piperidin-1-yl)pyridin-3-yl)isonicotinamide], the IC50 on GSK3α (setting [1]) amounted to 23 nM; against GSK3β, 130 nM; in the assay on pTau (read-out: pTau), 5400 nM.
Turning to `CC(C)C(=O)Nc1cc(C(=O)Nc2cnccc2OCC2(C)CC2)ccn1` [Example 201, 2-isobutyramido-N-(4-((1-methylcyclopropyl)methoxy)pyridin-3-yl)isonicotinamide], the results for the IC50 on GSK3α (setting [1]), at GSK3β (setting [2]) and in the assay with pTau (read-out: pTau) were 0.4 nM, 1.1 nM and 26 nM, respectively.
As to `CC(C)c1ccc(-c2ccncc2NC(=O)c2ccnc(NC(=O)C3CC3)c2)cc1` [Example 75, 2-(Cyclopropanecarboxamido)-N-(4-(4-isopropylphenyl)pyridine-3-yl)isonicotinamide], the IC50 on GSK3α (setting [1]) turned out to be 7.4 nM; on GSK3β (setting [2]), 30 nM; in the assay with pTau (read-out: pTau), 460 nM.
As for `O=C(Nc1cnccc1C1CCC1)c1ccnc(NC(=O)C2CC2)c1` [Example 41, N-(4-cyclobutylpyridin-3-yl)-2-(cyclopropanecarboxamido)isonicotinamide], the IC50 came out at 3 nM at GSK3α (setting [1]), 7.5 nM at GSK3β and 380 nM in the assay on pTau (read-out: pTau).
`Cn1cnc(NC(=O)c2ccnc(NC(=O)C3CC3)c2)c1` [Example 174, 2-(cyclopropanecarboxamido)-N-(1-methyl-1H-imidazol-4-yl)isonicotinamide]: the values for the IC50 on GSK3α (setting [1]) and in the assay with pTau (read-out: pTau) were 1200 nM and at least 10000 nM, respectively.
Turning to `O=C(Nc1cnc(-c2ccccn2)s1)c1ccnc(NC(=O)C2CC2)c1` [Example 176, 2-(cyclopropanecarboxamido)-N-(2-(pyridin-2-yl)thiazol-5-yl)isonicotinamide], the IC50 came to 650 nM on GSK3β (setting [2]) and 5500 nM with pTau (read-out: pTau).
As to `COc1ccc(NC(=O)c2ccnc(NC(=O)C3CC3)c2)cn1` [Example 7, 2-(Cyclopropanecarboxamido)-N-(6-methoxypyridin-3-yl)isonicotinamide], the IC50 was 1000 nM at GSK3α (setting [1]) and at least 10000 nM in the assay on pTau (read-out: pTau).
For `Cc1ncc(NC(=O)c2ccnc(NC(=O)C3CC3)c2)s1` [Example 177, 2-(cyclopropanecarboxamido)-N-(2-methylthiazol-5-yl)isonicotinamide], the IC50 at GSK3β (setting [2]) is 61 nM; with pTau (read-out: pTau), 3900 nM.
On to `O=C(Nc1cnc(-c2ccccc2)s1)c1ccnc(NC(=O)C2CC2)c1` [Example 181, 2-(cyclopropanecarboxamido)-N-(2-phenylthiazol-5-yl)isonicotinamide], for which the IC50 with pTau (read-out: pTau) amounted to 5500 nM.
For the molecule `CC(C)c1ccncc1NC(=O)c1ccnc(NC(=O)C2CC2)c1` [Example 39, 2-(Cyclopropanecarboxamido)-N-(4-isopropylpyridine-3-yl)isonicotinamide], the IC50 on GSK3β was 23 nM; with pTau (read-out: pTau), 470 nM.
With `O=C(Nc1cncc(-c2ccccc2)c1)c1ccnc(NC(=O)C2CCC2)c1` [Example 213, 2-(cyclobutanecarboxamido)-N-(5-phenylpyridin-3-yl)isonicotinamide], the IC50 worked out at 2.8 nM on GSK3α (setting [1]) and 1600 nM with pTau (read-out: pTau).
Regarding `O=C(Nc1cnccc1-c1cccnc1)c1ccnc(NC(=O)C2CC2)c1` [Example 32, N-([3,4′-bipyridin]-3′-yl)-2-(cyclopropanecarboxamido)isonicotinamide], the figures for the IC50 on GSK3β (setting [2]) and in the assay with pTau (read-out: pTau) were 160 nM and 3200 nM, respectively.
As to `O=C(Nc1cnccc1C1CCCC1)c1ccnc(NC(=O)C2CC2)c1` [Example 36, N-(4-cyclopentylpyridin-3-yl)-2-(cyclopropanecarboxamido)isonicotinamide], the IC50 is 41 nM against GSK3β and 800 nM in the assay on pTau (read-out: pTau).
Take `O=C(Nc1cnccc1-c1ccc(Cl)cc1)c1ccnc(NC(=O)C2CC(Cl)C2)c1` (stereo not drawn) [Example 225, N-(4-(4-chlorophenyl)pyridin-3-yl)-2-((1,3-cis)-3-cholorocyclobutanecarboxamido)isonicotinamide]: the IC50 in the assay on pTau (read-out: pTau) stood at 43 nM.
Consider `O=C(Nc1cnccc1-c1ccc(Cl)cc1)c1ccnc(NC(=O)C2CC(Cl)C2)c1` (stereo not drawn) [Example 224, N-(4-(4-chlorophenyl)pyridin-3-yl)-2-((1,3-trans)-3-cholorocyclobutanecarboxamido)isonicotinamide], for which the IC50 in the assay on pTau (read-out: pTau) is 15 nM.
For `O=C(Nc1cnccc1-c1ccsc1)c1ccnc(NC(=O)C2CC2)c1` [Example 31, 2-(Cyclopropanecarboxamido)-N-(4-(thiophen-3-yl)pyridin-3-yl)isonicotinamide], the IC50 at GSK3β (setting [2]) is 4.4 nM; in the assay with pTau (read-out: pTau) it was 200 nM.
Regarding `C=C(C)c1ccncc1NC(=O)c1ccnc(NC(=O)C2CC2)c1` [Example 38, 2-(Cyclopropanecarboxamido)-N-(4-(prop-1-en-2-yl)pyridin-3-yl)isonicotinamide], the IC50 against GSK3β came to 4.4 nM; in the assay with pTau (read-out: pTau), 80 nM.
`Cc1cscc1-c1cncc(NC(=O)c2ccnc(NC(=O)C3CC3)c2)c1` [Example 130, 2-(cyclopropanecarboxamido)-N-(5-(4-methylthiophen-3-yl)pyridin-3-yl)isonicotinamide]: the figures for the IC50 on GSK3α (setting [1]) and at GSK3β (setting [2]) were 0.41 nM and 2.5 nM, respectively.
Consider `O=C(Nc1cnccc1-c1ccncc1)c1ccnc(NC(=O)C2CC2)c1` [Example 33, N-([4,4′-bipyridin]-3-yl)-2-(cyclopropanecarboxamido)isonicotinamide], for which the IC50 is 28 nM on GSK3β (setting [2]) and 670 nM with pTau (read-out: pTau).
Regarding `O=C(Nc1cncc(C(F)(F)F)c1)c1ccnc(NC(=O)C2CC2)c1` [Example 150, 2-(cyclopropanecarboxamido)-N-(5-(trifluoromethyl)pyridin-3-yl)isonicotinamide], the values for the IC50 on GSK3α (setting [1]) and at GSK3β (setting [2]) were 17 nM and 88 nM, respectively.
`O=C(Nc1cnccc1C1CCCCC1)c1ccnc(NC(=O)C2CC2)c1` [Example 37, N-(4-cyclohexylpyridin-3-yl)-2-(cyclopropanecarboxamido)isonicotinamide]: the values for the IC50 against GSK3β and in the assay with pTau (read-out: pTau) were 120 nM and 1200 nM, respectively.
As for `CN(C)c1ccccc1-c1cncc(NC(=O)c2ccnc(NC(=O)C3CC3)c2)c1` [Example 154, 2-(cyclopropanecarboxamido)-N-(5-(2-(dimethylamino)phenyl)pyridin-3-yl)isonicotinamide], the values for the IC50 at GSK3α (setting [1]) and on GSK3β (setting [2]) were 18 nM and 40 nM, respectively.
